Patent US20060257474A1, “Remedies for glomerular diseases” (Kowa Co., Ltd., priority 2002, published 2006)
Counter-ions that a name gives are not always drawn.

Tested on: progressive anti-Thy-1 nephritic rat
Assay: Pharmacological test to a progressive anti-Thy-1 nephritic rat: total amount of protein excretion in urine
Type: in vivo, Wistar female rats
Settings: 18 h urine
Method: Wistar female rats (5 weeks of age, purchased from Japan SLC Co., Ltd.) were quarantined and acclimatized for 4 days and then used for the test. First, a right kidney of the rat was removed through a flank incision under anesthesia with pentobarbital. After 2 weeks passed, an anti-Thy-1 antibody (monoclonal antibody 1-22-3; purchased from […] Laboratories Co., Ltd.) was intravenously administered (500 μg/rat) into the tail vein to thereby bring about progressive renal damage, and the following tests 1 to 3 were immediately investigated. […] Control group (antibody-treated and compound-non-administered group): N=8, an antibody-non-treated group: N=6. Test 2: dilazep hydrochloride (10 mg/kg) dissolved in a physiological saline was continuously intraperitoneally administered for 10 weeks. Control group (antibody-treated and compound-non-administered group): N=8, an antibody-non-treated group: N=6. […] Control group (antibody-treated and compound-non-administered group): N=10, an antibody-non-treated group: N=6. In each test, after administering the drugs for 10 weeks, urine was taken for 18 hours by means of a metabolic cage (Sugiyama Gen Co., Ltd.) to measure the total amount of protein excretion in urine.

O=C([O-])C[C@H](O)C[C@H](O)/C=C/c1c(C2CC2)nc2ccccc2c1-c1ccc(F)cc1.O=C([O-])C[C@H](O)C[C@H](O)/C=C/c1c(C2CC2)nc2ccccc2c1-c1ccc(F)cc1.[Ca+2] [pitavastatin calcium]
total amount of protein excretion in urine (pitavastatin calcium alone, 10 mg/kg orally for 10 weeks, vs compound-non-administered control group (FIG. 1)): almost the same as that of the compound-non-administered group in the control

COc1cc(C(=O)OCCCN2CCCN(CCCOC(=O)c3cc(OC)c(OC)c(OC)c3)CC2)cc(OC)c1OC [dilazep hydrochloride]
total amount of protein excretion in urine (dilazep hydrochloride alone, 10 mg/kg intraperitoneally for 10 weeks, vs compound-non-administered control group (FIG. 2)): almost the same as that of the compound-non-administered group in the control
